# Measurements: patent US10758534B2 (Vertex Pharmaceuticals Incorporated, priority 2014, dated 2020)
# Biological target: T1, F508del (Homo sapiens, UniProt P13569, DEL508-508)
# T1 construct: expressed in transfected cells
# Experiment: Protocol 2: FRET membrane potential optical assay (VIPR), identification of correction compounds
# Assay type: cell-based
# Details: F508del CFTR modulator activity; compounds of Table 1; read-out: EC30
# How it was run: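 FRET read-out (CC2-DMPE donor, DiSBAC2(3) voltage-sensitive acceptor) of membrane depolarization on VIPR II. Corrector candidates incubated 16 hrs at 37° C. with NIH3T3 cells expressing F508del; temperature correction at 27° C. as positive control; stimulation by 10 μM forskolin, 20 μM genistein, chloride-free gluconate bath.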
# T1 sequence (P13569 with tags, fused parts or gaps DEL508-508): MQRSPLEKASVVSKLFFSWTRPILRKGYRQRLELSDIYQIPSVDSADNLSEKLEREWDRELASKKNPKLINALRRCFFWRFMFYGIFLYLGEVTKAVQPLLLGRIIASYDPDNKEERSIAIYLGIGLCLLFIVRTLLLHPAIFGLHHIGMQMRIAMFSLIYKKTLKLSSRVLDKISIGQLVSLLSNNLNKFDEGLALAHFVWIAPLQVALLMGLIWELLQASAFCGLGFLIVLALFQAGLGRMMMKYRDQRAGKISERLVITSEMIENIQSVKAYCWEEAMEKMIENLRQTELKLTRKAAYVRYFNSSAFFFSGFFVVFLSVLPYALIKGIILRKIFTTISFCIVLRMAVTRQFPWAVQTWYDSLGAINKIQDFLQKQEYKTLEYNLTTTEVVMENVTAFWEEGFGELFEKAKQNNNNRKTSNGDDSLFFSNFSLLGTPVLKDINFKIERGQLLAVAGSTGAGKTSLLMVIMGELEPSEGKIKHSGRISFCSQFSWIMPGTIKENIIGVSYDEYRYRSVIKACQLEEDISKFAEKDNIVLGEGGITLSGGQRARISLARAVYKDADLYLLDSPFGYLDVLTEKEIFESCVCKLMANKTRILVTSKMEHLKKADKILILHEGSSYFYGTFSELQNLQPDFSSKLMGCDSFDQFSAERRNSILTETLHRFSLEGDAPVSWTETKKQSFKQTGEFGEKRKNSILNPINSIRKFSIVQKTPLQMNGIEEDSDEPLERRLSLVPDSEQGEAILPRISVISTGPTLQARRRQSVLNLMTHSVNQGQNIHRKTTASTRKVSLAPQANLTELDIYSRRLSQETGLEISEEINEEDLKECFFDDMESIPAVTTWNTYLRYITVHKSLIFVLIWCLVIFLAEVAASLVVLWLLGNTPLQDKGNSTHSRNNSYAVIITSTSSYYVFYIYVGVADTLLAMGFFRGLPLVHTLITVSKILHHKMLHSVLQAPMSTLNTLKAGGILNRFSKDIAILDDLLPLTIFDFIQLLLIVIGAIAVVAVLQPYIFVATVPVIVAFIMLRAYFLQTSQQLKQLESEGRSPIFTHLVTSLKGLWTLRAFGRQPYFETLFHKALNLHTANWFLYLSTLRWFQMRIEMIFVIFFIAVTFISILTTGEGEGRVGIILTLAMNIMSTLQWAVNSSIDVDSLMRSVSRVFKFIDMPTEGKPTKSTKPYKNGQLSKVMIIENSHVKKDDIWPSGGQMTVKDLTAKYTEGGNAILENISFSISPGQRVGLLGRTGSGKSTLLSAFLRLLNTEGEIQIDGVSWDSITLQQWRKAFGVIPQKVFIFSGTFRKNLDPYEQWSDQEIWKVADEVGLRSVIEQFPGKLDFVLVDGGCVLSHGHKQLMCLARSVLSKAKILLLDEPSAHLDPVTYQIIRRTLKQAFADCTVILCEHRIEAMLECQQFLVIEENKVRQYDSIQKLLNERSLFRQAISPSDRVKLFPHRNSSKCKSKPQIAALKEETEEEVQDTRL
row,Compound,EC30
1,"COc1c(F)cccc1-c1ccc(C(=O)NS(=O)(=O)c2cccnc2N)c(N2C[C@@H](C)CC2(C)C)n1 [Compound 2355, N-[(2-amino-3-pyridyl)sulfonyl]-6-(3-fluoro-2-methoxy-phenyl)-2-[(4S)-2,2,4-trimethylpyrrolidin-1-yl]pyridine-3-carboxamide]",< 3 µM
2,"COc1cc(F)ccc1-c1ccc(C(=O)NS(=O)(=O)c2ccc[nH]c2=O)c(N2C[C@@H](C)CC2(C)C)n1 [Compound 2356, 6-(4-fluoro-2-methoxy-phenyl)-N-[(2-oxo-1H-pyridin-3-yl)sulfonyl]-2-[(4S)-2,2,4-trimethylpyrrolidin-1-yl]pyridine-3-carboxamide]",< 3 µM
3,"COc1cc(Nc2cccc(S(=O)(=O)NC(=O)c3cccnc3N3CC(C)CC3(C)C)n2)cc(OC)c1 (stereo not shown) [Compound 2357, N—[[6-(3,5-dimethoxyanilino)-2-pyridyl]sulfonyl]-2-(2,2,4-trimethylpyrrolidin-1-yl)pyridine-3-carboxamide]",< 3 µM
4,"CC1CN(c2ncccc2C(=O)NS(=O)(=O)c2cccc(NCCc3ccccn3)n2)C(C)(C)C1 (stereo not shown) [Compound 2359, N—[[6-[2-(2-pyridyl)ethylamino]-2-pyridyl]sulfonyl]-2-(2,2,4-trimethylpyrrolidin-1-yl)pyridine-3-carboxamide]",3 to 10 µM
5,"CC(C)Oc1ccn(-c2ccc(C(=O)NS(=O)(=O)c3ccc[nH]c3=O)c(N3C[C@@H](C)CC3(C)C)n2)n1 [Compound 2360, 6-(3-isopropoxypyrazol-1-yl)-N-[(2-oxo-1H-pyridin-3-yl)sulfonyl]-2-[(4S)-2,2,4-trimethylpyrrolidin-1-yl]pyridine-3-carboxamide]",3 to 10 µM
6,"CC1CC=C(c2cnc(N3CC(C)CC3(C)C)c(C(=O)NS(=O)(=O)c3cccc(N)n3)c2)CC1 (stereo not shown) [Compound 2361, N-[(6-amino-2-pyridyl)sulfonyl]-5-(4-methylcyclohexen-1-yl)-2-(2,2,4-trimethylpyrrolidin-1-yl)pyridine-3-carboxamide]",< 3 µM
7,"Cc1ccc(-c2ccc(C(=O)NS(=O)(=O)c3cccc(N)n3)c(N3CC(C)CC3(C)C)n2)nc1NCC(C)C (stereo not shown) [Compound 2362, N-[(6-amino-2-pyridyl)sulfonyl]-6-[6-(isobutylamino)-5-methyl-2-pyridyl]-2-(2,2,4-trimethylpyrrolidin-1-yl)pyridine-3-carboxamide]",< 3 µM
8,"Cc1ccc(-c2ccc(C(=O)NS(=O)(=O)c3cccnc3N)c(N3C[C@@H](C)CC3(C)C)n2)cn1 [Compound 2363, N-[(2-amino-3-pyridyl)sulfonyl]-6-(6-methyl-3-pyridyl)-2-[(4S)-2,2,4-trimethylpyrrolidin-1-yl]pyridine-3-carboxamide]",3 to 10 µM
9,"CCOc1cc(-c2ccc(C(=O)NS(=O)(=O)c3cccc(N)n3)c(N3C[C@@H](C)CC3(C)C)n2)cc(C)n1 [Compound 2364, N-[(6-amino-2-pyridyl)sulfonyl]-6-(2-ethoxy-6-methyl-4-pyridyl)-2-[(4S)-2,2,4-trimethylpyrrolidin-1-yl]pyridine-3-carboxamide]",< 3 µM
10,"CC1CN(c2ncccc2C(=O)NS(=O)(=O)c2cccc(NCc3cccc(C(F)(F)F)n3)n2)C(C)(C)C1 (stereo not shown) [Compound 2365, N—[[6-[[6-(trifluoromethyl)-2-pyridyl]methylamino]-2-pyridyl]sulfonyl]-2-(2,2,4-trimethylpyrrolidin-1-yl)pyridine-3-carboxamide]",< 3 µM
11,"C[C@@H]1CN(c2nc(-c3cccc(OC(F)(F)F)c3)ccc2C(=O)NS(=O)(=O)c2cccc(N)n2)C(C)(C)C1 [Compound 2366, N-[(6-amino-2-pyridyl)sulfonyl]-6-[3-(trifluoromethoxy)phenyl]-2-[(4S)-2,2,4-trimethylpyrrolidin-1-yl]pyridine-3-carboxamide]",< 3 µM
12,"C[C@@H]1CN(c2nc(-c3ccc(Cl)cc3)ccc2C(=O)NS(=O)(=O)c2cccnc2N)C(C)(C)C1 [Compound 2367, N-[(2-amino-3-pyridyl)sulfonyl]-6-(4-chlorophenyl)-2-[(4S)-2,2,4-trimethylpyrrolidin-1-yl]pyridine-3-carboxamide]",< 3 µM
13,"CC(C)c1ccc(-c2ccc(C(=O)NS(=O)(=O)c3cccnc3N)c(N3C[C@@H](C)CC3(C)C)n2)cc1 [Compound 2368, N-[(2-amino-3-pyridyl)sulfonyl]-6-(4-isopropylphenyl)-2-[(4S)-2,2,4-trimethylpyrrolidin-1-yl]pyridine-3-carboxamide]",< 3 µM
14,"COc1ccc(-c2ccc(C(=O)NS(=O)(=O)c3ccc[nH]c3=O)c(N3C[C@@H](C)CC3(C)C)n2)cc1C [Compound 2369, 6-(4-methoxy-3-methyl-phenyl)-N-[(2-oxo-1H-pyridin-3-yl)sulfonyl]-2-[(4S)-2,2,4-trimethylpyrrolidin-1-yl]pyridine-3-carboxamide]",< 3 µM
15,C[C@@H]1CN(c2nc(C(C)(C)C)c(C(O)C(O)C(C)(C)C)cc2C(=O)NS(=O)(=O)c2cccc(N)n2)C(C)(C)C1 (stereo partly shown) [Compound 2370],< 3 µM
16,"CC1CN(c2ncccc2C(=O)NS(=O)(=O)c2cccc(OC3CCC3)n2)C(C)(C)C1 (stereo not shown) [Compound 2371, N—[[6-(cyclobutoxy)-2-pyridyl]sulfonyl]-2-(2,2,4-trimethylpyrrolidin-1-yl)pyridine-3-carboxamide]",< 3 µM
17,"C[C@@H]1CN(c2nc(-c3ccc(F)cc3F)ccc2C(=O)NS(=O)(=O)c2cccc(N)n2)C(C)(C)C1 [Compound 2372, N-[(6-amino-2-pyridyl)sulfonyl]-6-(2,4-difluorophenyl)-2-[(4S)-2,2,4-trimethylpyrrolidin-1-yl]pyridine-3-carboxamide]",< 3 µM
18,"CC1CN(c2nc(OC(C)C3CC3)c(F)cc2C(=O)NS(=O)(=O)c2cccc(N)n2)C(C)(C)C1 (stereo not shown) [Compound 2373, N-[(6-amino-2-pyridyl)sulfonyl]-6-(1-cyclopropylethoxy)-5-fluoro-2-(2,2,4-trimethylpyrrolidin-1-yl)pyridine-3-carboxamide]",< 3 µM
19,"CC(C)COc1cc(F)cc(-c2ccc(C(=O)NS(=O)(=O)c3cccc(N)n3)c(NCC3CCCCC3)n2)c1 [Compound 2375, N-[(6-amino-2-pyridyl)sulfonyl]-2-(cyclohexylmethylamino)-6-(3-fluoro-5-isobutoxy-phenyl)pyridine-3-carboxamide]",3 to 10 µM
20,"CC(C)COc1cc(F)cc(-c2ccc(C(=O)NS(=O)(=O)c3cccc(N)n3)c(N3CCCC4CC43)n2)c1 (stereo not shown) [Compound 2376, N-[(6-amino-2-pyridyl)sulfonyl]-2-(5-azabicyclo[4.1.0]heptan-5-yl)-6-(3-fluoro-5-isobutoxy-phenyl)pyridine-3-carboxamide]",< 3 µM
21,"CC(C)COc1cc(F)cc(-c2ccc(C(=O)NS(=O)(=O)c3cccnc3)c(N3C[C@@H](C)CC3(C)C)n2)c1 [Compound 2377, 6-(3-fluoro-5-isobutoxy-phenyl)-N-(3-pyridylsulfonyl)-2-[(4S)-2,2,4-trimethylpyrrolidin-1-yl]pyridine-3-carboxamide]",< 3 µM
22,"CC1CN(c2ncccc2C(=O)NS(=O)(=O)c2cccc(N(C)Cc3cccc(Cl)c3)n2)C(C)(C)C1 (stereo not shown) [Compound 2378, N—[[6-[(3-chlorophenyl)methyl-methyl-amino]-2-pyridyl]sulfonyl]-2-(2,2,4-trimethylpyrrolidin-1-yl)pyridine-3-carboxamide]",< 3 µM
